{"source": "patent US12486300B2", "about": "“Mithramycin oxime derivatives having increased selectivity and anti-cancer activity” (University of Kentucky Research Foundation, priority 2018, dated 2025)", "assay_type_in_all_cases": "cell-based", "key": {"[1]": {"tested_on": "TC32 Ewing sarcoma cells, expressing EWS-FLI1", "assay": "Growth inhibition assay, TC32 cells", "conditions": "for EC50: Table 1D, read-out: TC-32 Mean EC50; for PC:TC32 (cellular selectivity): ratio of GI50 PC3 to TC32; for TC32 vs. PC3 / IC50: Table 1C; for TC32 vs. PC3: cellular selectivity; for IC50: read-out: IC50 TC-32", "experimental": "(§1) Growth inhibition assay to assess cytotoxicity in ETS vs non-ETS expressing cells. Cells were seeded in clear 96-well plates (VWR, Radnor, PA). Seeding densities were optimized for each cell line to support 5 days of linear growth. Following a 24 hours attachment period, cells in duplicate wells were treated with half-log increments of respective compounds (0 nM and 0.3 nM-10 μM). Working stocks were prepared from an initial 10 mM drug stock diluted in either 100% ethanol or dimethyl sulfoxide (DMSO). All wells contained a final concentration of 0.1% (v/v) respective organic solvent. Immediately following treatment, cell viability was measured for vehicle control (Day 0) wells. Cell viability was measured in the remaining wells after 72 hours of incubation with compound or vehicle control (Day 3).\n(§2) Percent viability, relative to the initial cell seeding concentration, was calculated by ((TreatmentDay3−Vehicle ControlDay0)/(Vehicle ControlDay3−Vehicle ControlDay0))×100. Percent cell viability was plotted as a function of compound concentration (Log [M]) and the data were fit using a 3-parameter non-linear model with fixed Hill slope constant and 4-parameter non-linear model with variable Hill slope constant. The model with the best curve fit was used to estimate the GI50 in GraphPad Prism 7.0 software (GraphPad Software, La Jolla, CA). The 3-parameter equation used was Y=Bottom+(Top−Bottom)/(1+10[…]((X−Log[IC50]))). The 4-parameter equation used was Y=Bottom+(Top−Bottom)/(1+10[…]((Log[IC50]−X)*Hillslope)). Top and Bottom are plateaus in the units of the Y-axis (response). IC50 is the response (Y-axis) halfway between Top and Bottom plateaus.\n(§3) All compounds were tested at least once in multi-well replicates and each experiment included one a control compound (i.e., MTM) to ensure the stable response of the cell lines. The selectivity index was estimated by determining the ratio of GI50 estimates between ETS fusion negative and ETS fusion positive cell lines."}, "[2]": {"tested_on": "PC3 Prostate Cancer Cells", "assay": "Growth inhibition assay, PC3 cells", "conditions": "for EC50: Table 1D; for IC50: Table 1C", "experimental": "as §1, §2, §3"}, "[3]": {"tested_on": "A-204 (ATTC Cat. No., HTB-82); Rhabdomyosarcoma (embryonal)", "assay": "Growth inhibition assay, A-204 cells", "conditions": "for IC50: Table 1C; for EC50: Table 1D", "experimental": "as §1, with “3). For viability measurements, 0.1 mM resazurin (Sigma, St. Louis, MO) was added to wells and following 3 hours of incubation at 37° C., fluorescence readings ([…]) were recorded using a SpectraMax M5 plate reader (Molecular Devices, Sunnyvale, CA).” for “3).”\nas §2\nas §3, with “GI50 values were determined by pooling all available experiments and reported with 95% confidence interval, calculated from GraphPad Prism 7.0 software curve fit. All” for “All”"}, "[4]": {"tested_on": "G-401 (ATTC Cat. No., CRL-1441); Rhabdoid tumor of the kidney", "assay": "Growth inhibition assay, G-401 cells", "conditions": "for IC50: Table 1C; for EC50: Table 1D", "experimental": "as §1, with “3). For viability measurements, 0.1 mM resazurin (Sigma, St. Louis, MO) was added to wells and following 3 hours of incubation at 37° C., fluorescence readings ([…]) were recorded using a SpectraMax M5 plate reader (Molecular Devices, Sunnyvale, CA).” for “3).”\nas §2\nas §3, with “GI50 values were determined by pooling all available experiments and reported with 95% confidence interval, calculated from GraphPad Prism 7.0 software curve fit. All” for “All”"}, "[5]": {"tested_on": "RH30 muscle rhabdomyosarcoma", "assay": "Growth inhibition assay, RH30 cells", "conditions": "Table 1D", "experimental": "as §1, with “3). For viability measurements, 0.1 mM resazurin (Sigma, St. Louis, MO) was added to wells and following 3 hours of incubation at 37° C., fluorescence readings ([…]) were recorded using a SpectraMax M5 plate reader (Molecular Devices, Sunnyvale, CA).” for “3).”\nas §2\nas §3, with “GI50 values were determined by pooling all available experiments and reported with 95% confidence interval, calculated from GraphPad Prism 7.0 software curve fit. All” for “All”"}, "U-2 OS bone osteosarcoma": {"tested_on": "U-2 OS bone osteosarcoma", "assay": "Growth inhibition assay, U-2 OS cells", "conditions": "Table 1D", "experimental": "as §1, with “3). For viability measurements, 0.1 mM resazurin (Sigma, St. Louis, MO) was added to wells and following 3 hours of incubation at 37° C., fluorescence readings ([…]) were recorded using a SpectraMax M5 plate reader (Molecular Devices, Sunnyvale, CA).” for “3).”\nas §2\nas §3, with “GI50 values were determined by pooling all available experiments and reported with 95% confidence interval, calculated from GraphPad Prism 7.0 software curve fit. All” for “All”"}}, "data": [{"smiles": "CO[C@H](/C(=N/OCC(=O)N[C@@H](Cc1c[nH]c2ccccc12)C(N)=O)[C@@H](O)[C@@H](C)O)[C@@H]1Cc2cc3cc(O[C@H]4C[C@@H](O[C@H]5C[C@@H](O)[C@H](O)C(C)O5)[C@H](O)C(C)O4)c(C)c(O)c3c(O)c2C(=O)[C@H]1O[C@H]1C[C@@H](O[C@H]2C[C@@H](O[C@H]3C[C@](C)(O)[C@H](O)C(C)O3)[C@H](O)C(C)O2)[C@H](O)C(C)O1", "note": "(some centres unmarked) [MTM (42)]", "values": [{"measurement": "EC50", "setting": "[1]", "result": 304, "unit": "nM"}, {"measurement": "PC:TC32 (cellular selectivity)", "setting": "[1]", "result": 8.5}, {"measurement": "EC50", "setting": "[2]", "result": 3550, "unit": "nM"}]}, {"smiles": "CCOC(=O)[C@H](Cc1c[nH]c2ccccc12)NC(=O)CO/N=C(\\[C@@H](O)[C@@H](C)O)[C@@H](OC)[C@@H]1Cc2cc3cc(O[C@H]4C[C@@H](O[C@H]5C[C@@H](O)[C@H](O)C(C)O5)[C@H](O)C(C)O4)c(C)c(O)c3c(O)c2C(=O)[C@H]1O[C@H]1C[C@@H](O[C@H]2C[C@@H](O[C@H]3C[C@](C)(O)[C@H](O)C(C)O3)[C@H](O)C(C)O2)[C@H](O)C(C)O1", "note": "(some centres unmarked) [MTM (41)]", "values": [{"measurement": "EC50", "setting": "[1]", "result": 266, "unit": "nM"}, {"measurement": "PC:TC32 (cellular selectivity)", "setting": "[1]", "result": 13.5}, {"measurement": "EC50", "setting": "[2]", "result": 4060, "unit": "nM"}]}, {"smiles": "CO[C@H](/C(=N/OCC(=O)N[C@H](CO)Cc1c[nH]c2ccccc12)[C@@H](O)[C@@H](C)O)[C@@H]1Cc2cc3cc(O[C@H]4C[C@@H](O[C@H]5C[C@@H](O)[C@H](O)C(C)O5)[C@H](O)C(C)O4)c(C)c(O)c3c(O)c2C(=O)[C@H]1O[C@H]1C[C@@H](O[C@H]2C[C@@H](O[C@H]3C[C@](C)(O)[C@H](O)C(C)O3)[C@H](O)C(C)O2)[C@H](O)C(C)O1", "note": "(some centres unmarked) [MTM (59)]", "values": [{"measurement": "EC50", "setting": "[1]", "result": 84.7, "unit": "nM"}, {"measurement": "PC:TC32 (cellular selectivity)", "setting": "[1]", "result": 4.8}, {"measurement": "EC50", "setting": "[2]", "result": 313, "unit": "nM"}]}, {"smiles": "COC(C(=NOCC(=O)NC(Cc1c[nH]c2ccccc12)C(=O)N1CCOCC1)C(O)C(C)O)C1Cc2cc3cc(OC4CC(OC5CC(O)C(O)C(C)O5)C(O)C(C)O4)c(C)c(O)c3c(O)c2C(=O)C1OC1CC(OC2CC(OC3CC(C)(O)C(O)C(C)O3)C(O)C(C)O2)C(O)C(C)O1", "note": "(centres unmarked) [MTM102]", "values": [{"measurement": "TC32 vs. PC3", "setting": "[1]", "result": 17, "unit": "×"}, {"measurement": "IC50", "setting": "[1]", "result": 156, "unit": "nM"}, {"measurement": "EC50", "setting": "[1]", "result": 162, "unit": "nM"}, {"measurement": "IC50", "setting": "[3]", "result": 2300, "unit": "nM"}, {"measurement": "EC50", "setting": "[3]", "result": 2740, "unit": "nM"}, {"measurement": "IC50", "setting": "[2]", "result": 2700, "unit": "nM"}, {"measurement": "EC50", "setting": "[2]", "result": 1650, "unit": "nM"}, {"measurement": "IC50", "setting": "[4]", "result": 514, "unit": "nM"}, {"measurement": "EC50", "setting": "[4]", "result": 591, "unit": "nM"}]}, {"smiles": "COC(C(=NOCC(=O)NC(Cc1cn(C)c2ccccc12)C(=O)N1CCOCC1)C(O)C(C)O)C1Cc2cc3cc(OC4CC(OC5CC(O)C(O)C(C)O5)C(O)C(C)O4)c(C)c(O)c3c(O)c2C(=O)C1OC1CC(OC2CC(OC3CC(C)(O)C(O)C(C)O3)C(O)C(C)O2)C(O)C(C)O1", "note": "(centres unmarked) [AK-B11]", "values": [{"measurement": "TC32 vs. PC3", "setting": "[1]", "result": ">8", "unit": "×"}, {"measurement": "IC50", "setting": "[1]", "result": "147 to 300", "unit": "nM"}, {"measurement": "EC50", "setting": "[1]", "result": 49.8, "unit": "nM"}, {"measurement": "IC50", "setting": "[2]", "result": "1600 to 2500", "unit": "nM"}, {"measurement": "EC50", "setting": "[2]", "result": 666, "unit": "nM"}]}, {"smiles": "CCN(CC)C(=O)C(Cc1c[nH]c2ccccc12)NC(=O)CON=C(C(O)C(C)O)C(OC)C1Cc2cc3cc(OC4CC(OC5CC(O)C(O)C(C)O5)C(O)C(C)O4)c(C)c(O)c3c(O)c2C(=O)C1OC1CC(OC2CC(OC3CC(C)(O)C(O)C(C)O3)C(O)C(C)O2)C(O)C(C)O1", "note": "(centres unmarked) [MTM103]", "values": [{"measurement": "EC50", "setting": "[5]", "result": 29.4, "unit": "nM"}, {"measurement": "EC50", "setting": "[1]", "result": 23.5, "unit": "nM"}, {"measurement": "EC50", "setting": "[3]", "result": 194, "unit": "nM"}, {"measurement": "EC50", "setting": "[2]", "result": 91.3, "unit": "nM"}, {"measurement": "EC50", "setting": "[4]", "result": 25.5, "unit": "nM"}]}, {"smiles": "COC(C(=NOCC(=O)NC(Cc1c[nH]c2ccccc12)C(=O)N1CCC1)C(O)C(C)O)C1Cc2cc3cc(OC4CC(OC5CC(O)C(O)C(C)O5)C(O)C(C)O4)c(C)c(O)c3c(O)c2C(=O)C1OC1CC(OC2CC(OC3CC(C)(O)C(O)C(C)O3)C(O)C(C)O2)C(O)C(C)O1", "note": "(centres unmarked) [MTM104]", "values": [{"measurement": "EC50", "setting": "[5]", "result": 295, "unit": "nM"}, {"measurement": "TC32 vs. PC3", "setting": "[1]", "result": 8, "unit": "×"}, {"measurement": "IC50", "setting": "[1]", "result": 87, "unit": "nM"}, {"measurement": "EC50", "setting": "[1]", "result": 91.7, "unit": "nM"}, {"measurement": "EC50", "setting": "U-2 OS bone osteosarcoma", "result": "> 10000", "unit": "nM"}, {"measurement": "IC50", "setting": "[3]", "result": 864, "unit": "nM"}, {"measurement": "EC50", "setting": "[3]", "result": 883, "unit": "nM"}, {"measurement": "IC50", "setting": "[2]", "result": 730, "unit": "nM"}, {"measurement": "EC50", "setting": "[2]", "result": 671, "unit": "nM"}, {"measurement": "IC50", "setting": "[4]", "result": 219, "unit": "nM"}, {"measurement": "EC50", "setting": "[4]", "result": 222, "unit": "nM"}]}, {"smiles": "COC(C(=NOCC(=O)N(C)C(Cc1cn(C)c2ccccc12)C(=O)N1CCOCC1)C(O)C(C)O)C1Cc2cc3cc(OC4CC(OC5CC(O)C(O)C(C)O5)C(O)C(C)O4)c(C)c(O)c3c(O)c2C(=O)C1OC1CC(OC2CC(OC3CC(C)(O)C(O)C(C)O3)C(O)C(C)O2)C(O)C(C)O1", "note": "(centres unmarked) [AK-B6]", "values": [{"measurement": "TC32 vs. PC3", "setting": "[1]", "result": ">3", "unit": "×"}, {"measurement": "IC50", "setting": "[1]", "result": "32 to 120", "unit": "nM"}, {"measurement": "EC50", "setting": "[1]", "result": 10.7, "unit": "nM"}, {"measurement": "IC50", "setting": "[2]", "result": "150 to 370", "unit": "nM"}, {"measurement": "EC50", "setting": "[2]", "result": 52.3, "unit": "nM"}]}]}
